Assay results from BindingDB's records for doi:10.1016/j.bmc.2021.116161 (University of Nantes, 2021).

Key:
[1] = Inhibition of IL-15 in mouse 32Dbeta cells assessed as decrease in cell growth in presence of RLI incubated for 30 mins followed by RLI addition and measured after 2.5 days by alamar blue assay
[2] = Inhibition of […] in mouse 32Dbeta cells assessed as decrease in cell growth in presence of IL2 incubated for 30 mins followed by IL2 addition and measured after 2.5 days by alamar blue assay

SMILES | IC50 [1] [µM] | IC50 [2] [µM]
Cn1c(Cc2nn(C)c(=O)c3ccccc23)nnc1SCC(=O)Nc1ccc(Cl)cc1Cl | 22.5 | 21.1
Cn1nc(Cc2nnc(SCC(=O)Nc3ccc(Cl)cc3Cl)n2CCC=O)c2ccccc2c1=O | 6 | 6.4
Cn1nc(Cc2nnc(SCC(=O)Nc3ccc(Cl)cc3Cl)n2CCCO)c2ccccc2c1=O | > 30 | > 30
Cn1nc(Cc2nnc(SCC(=O)Nc3ccc(Cl)cc3Cl)n2CCC(=O)O)c2ccccc2c1=O | > 30 | > 30
Cn1c(Cc2nn(CCC3OCCO3)c(=O)c3ccccc23)nnc1SCC(=O)Nc1ccc(Cl)cc1Cl | > 30 | > 30
Cn1c(Cc2nn(CCC=O)c(=O)c3ccccc23)nnc1SCC(=O)Nc1ccc(Cl)cc1Cl | 30 | 30
Cn1c(Cc2nn(CCCO)c(=O)c3ccccc23)nnc1SCC(=O)Nc1ccc(Cl)cc1Cl | > 30 | > 30
Cn1c(Cc2nn(CCC(=O)O)c(=O)c3ccccc23)nnc1SCC(=O)Nc1ccc(Cl)cc1Cl | > 30 | > 30
CN(C)CCCn1nc(Cc2nnc(SCC(=O)Nc3ccc(Cl)cc3Cl)n2C)c2ccccc2c1=O | 18.8 | 16.7
Cn1nc(Cc2nnc(SCCCCCCCC(=O)Nc3ccc(Cl)cc3Cl)[nH]2)c2ccccc2c1=O | 1.1 | 3.5
Cn1c(Cc2nn(CCCO[Si](C)(C)C(C)(C)C)c(=O)c3ccccc23)nnc1SCCCCCCCC(=O)Nc1ccc(Cl)cc1Cl | > 30 | > 30
Cn1c(Cc2nn(CCC=O)c(=O)c3ccccc23)nnc1SCCCCCCCC(=O)Nc1ccc(Cl)cc1Cl | 8.9 | 11.7
Cn1c(Cc2nn(CCC(=O)O)c(=O)c3ccccc23)nnc1SCCCCCCCC(=O)Nc1ccc(Cl)cc1Cl | > 30 | > 30
CN(C)CCCn1nc(Cc2nnc(SCCCCCCCC(=O)Nc3ccc(Cl)cc3Cl)n2C)c2ccccc2c1=O | 2.3 | 3.2
Cn1c(Cc2n[nH]c(=O)c3ccccc23)nnc1SCCCCCCCC(=O)Nc1ccc(Cl)cc1Cl | > 30 | > 30
Cn1c(Cc2nn(C)c(=O)c3ccccc23)nnc1SCCCCCCCC(=O)Nc1ccc(C(=O)c2ccccc2)cc1 | 6.7 | 20.6

Other lines, results leading:

IC50 [1] [µM] | IC50 [2] [µM] | SMILES
2.2 | 3.9 | Cn1c(Cc2nn(C)c(=O)c3ccccc23)nnc1SCCCCCCCC(=O)Nc1ccc(Cl)cc1Cl
> 30 | > 30 | CCOC(CCn1c(Cc2nn(C)c(=O)c3ccccc23)nnc1SCC(=O)Nc1ccc(Cl)cc1Cl)OCC
12.1 | 16.4 | CCOC(CCn1c(Cc2nn(C)c(=O)c3ccccc23)nnc1SCCCCCCCC(=O)Nc1ccc(Cl)cc1Cl)OCC
2.5 | 5.5 | Cn1nc(Cc2nnc(SCCCCCCCC(=O)Nc3ccc(Cl)cc3Cl)n2CCC=O)c2ccccc2c1=O
> 30 | > 30 | Cn1nc(Cc2nnc(SCCCCCCCC(=O)Nc3ccc(Cl)cc3Cl)n2CCCO[Si](C)(C)C(C)(C)C)c2ccccc2c1=O
> 30 | > 30 | Cn1nc(Cc2nnc(SCCCCCCCC(=O)Nc3ccc(Cl)cc3Cl)n2CCCO)c2ccccc2c1=O
> 30 | > 30 | Cn1nc(Cc2nnc(SCCCCCCCC(=O)Nc3ccc(Cl)cc3Cl)n2CCC(=O)O)c2ccccc2c1=O
3.7 | 5.5 | CN(C)CCCn1c(Cc2nn(C)c(=O)c3ccccc23)nnc1SCCCCCCCC(=O)Nc1ccc(Cl)cc1Cl
> 30 | > 30 | Cn1c(Cc2nn(CCCO)c(=O)c3ccccc23)nnc1SCCCCCCCC(=O)Nc1ccc(Cl)cc1Cl
